Reference: patent publication US20090318446A1, “4-(1H-Indol-3-yl)-Pyrimidin-2-Ylamine Derivatives and Their Use in Therapy” (Cyclacel Limited, priority 2005, published 2009)
Where two headings read alike, the source gives them in different places.

Tests used:
[1] = target: Drosophila Aurora A (Drosophila melanogaster, UniProt Q9VGF9); assay: Aurora A kinase assay (Drosophila enzyme); assay type: biochemical; conditions: Table 3, values marked *: Drosophila Aurora A; read-out: Kinase inhibition Aurora A (*Drosophila Aurora A)
Chain of Drosophila Aurora A (Q9VGF9 entry or part of it): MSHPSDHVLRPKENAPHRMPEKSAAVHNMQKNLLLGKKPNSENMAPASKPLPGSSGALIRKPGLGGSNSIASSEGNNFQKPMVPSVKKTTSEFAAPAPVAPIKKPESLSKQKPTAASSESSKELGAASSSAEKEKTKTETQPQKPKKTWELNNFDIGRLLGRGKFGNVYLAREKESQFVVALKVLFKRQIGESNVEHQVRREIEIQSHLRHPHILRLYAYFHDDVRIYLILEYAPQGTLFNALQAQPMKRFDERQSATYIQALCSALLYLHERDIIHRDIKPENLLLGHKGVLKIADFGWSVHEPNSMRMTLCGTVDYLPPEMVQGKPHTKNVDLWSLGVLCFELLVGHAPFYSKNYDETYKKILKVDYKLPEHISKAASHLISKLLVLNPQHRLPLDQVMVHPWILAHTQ
Procedure: (§1) The compounds from the examples above were investigated for their ability to inhibit the enzymatic activity of various protein kinases. This was achieved by measurement of incorporation of radioactive phosphate from ATP into appropriate polypeptide substrates. Recombinant protein kinases and kinase complexes were produced or obtained commercially. Assays were performed using 96-well plates and appropriate assay buffers (typically 25 mM β-glycerophosphate, 20 mM MOPS, 5 mM EGTA, 1 mM DTT, 1 mM […], pH 7.4), into which were added 2-4 μg of active enzyme with appropriate substrates. The reactions were initiated by addition of Mg/ATP mix (15 mM MgCl2+100 μM ATP with 30-50 kBq per well of [γ-^32P]-ATP) and mixtures incubated as required at 30° C. Reactions were stopped on ice, followed by filtration through p81 filterplates or GF/C filterplates (Whatman Polyfiltronics, Kent, UK). After washing 3 times with 75 mM aq orthophosphoric acid, plates were dried, scintillant added and incorporated radioactivity measured in a scintillation counter (TopCount, Packard Instruments, Pangbourne, Berks, UK). Compounds for kinase assay were made up as 10 mM stocks in DMSO and diluted into 10% DMSO in assay buffer. Data was analysed using curve-fitting software (GraphPad Prism version 3.00 for Windows, GraphPad Software, San Diego Calif. USA) to determine IC50 values (concentration of test compound which inhibits kinase activity by 50%).

[2] = target: CDK2/cyclin A (Homo sapiens, UniProt P24941); assay: Kinase assay CDK2/cyclin A; assay type: biochemical; conditions: Table 2; read-out: Kinase inhibition IC50 CDK2A
Procedure: as §1

[3] = target: CDK2/cyclin E (Homo sapiens, UniProt P24941); assay: Kinase assay CDK2/cyclin E; assay type: biochemical
Procedure: as §1

[4] = target: CDK4/cyclin D1 (Homo sapiens, UniProt P11802); assay: Kinase assay CDK4/cyclin D1; assay type: biochemical
Chain of CDK4/cyclin D1 (P11802 whole entry, species assumed): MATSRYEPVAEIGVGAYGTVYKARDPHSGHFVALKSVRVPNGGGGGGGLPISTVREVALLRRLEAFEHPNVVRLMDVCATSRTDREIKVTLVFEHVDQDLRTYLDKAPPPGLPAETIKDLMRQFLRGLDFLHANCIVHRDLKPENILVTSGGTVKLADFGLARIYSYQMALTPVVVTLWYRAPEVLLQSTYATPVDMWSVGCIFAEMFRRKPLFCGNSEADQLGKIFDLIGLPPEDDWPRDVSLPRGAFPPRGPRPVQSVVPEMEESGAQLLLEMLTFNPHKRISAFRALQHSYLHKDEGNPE
Chain of CDK4/cyclin D1 (P24385 whole entry partner, species assumed): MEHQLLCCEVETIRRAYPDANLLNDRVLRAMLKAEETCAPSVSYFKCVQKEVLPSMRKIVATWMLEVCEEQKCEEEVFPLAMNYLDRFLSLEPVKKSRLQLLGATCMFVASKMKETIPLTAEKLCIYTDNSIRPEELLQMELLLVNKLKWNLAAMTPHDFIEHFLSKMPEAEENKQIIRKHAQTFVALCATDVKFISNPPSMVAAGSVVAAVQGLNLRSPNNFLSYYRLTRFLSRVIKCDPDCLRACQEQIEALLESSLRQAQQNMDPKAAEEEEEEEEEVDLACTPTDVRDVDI
Procedure: as §1

[5] = target: CDK7/cyclin H (Homo sapiens, UniProt P50613); assay: CDK 7 assay; assay type: biochemical
Chain of CDK7/cyclin H (P50613 whole entry): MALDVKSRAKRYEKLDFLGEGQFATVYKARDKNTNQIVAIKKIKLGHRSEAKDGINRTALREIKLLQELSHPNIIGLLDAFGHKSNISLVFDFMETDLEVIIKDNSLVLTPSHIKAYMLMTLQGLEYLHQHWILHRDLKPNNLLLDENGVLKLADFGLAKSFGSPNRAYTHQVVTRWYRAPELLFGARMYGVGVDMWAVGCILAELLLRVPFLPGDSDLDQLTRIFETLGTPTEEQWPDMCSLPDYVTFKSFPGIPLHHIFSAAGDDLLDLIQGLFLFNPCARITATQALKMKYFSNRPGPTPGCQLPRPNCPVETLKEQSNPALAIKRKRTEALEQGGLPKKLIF
Chain of CDK7/cyclin H (P51946 whole entry partner): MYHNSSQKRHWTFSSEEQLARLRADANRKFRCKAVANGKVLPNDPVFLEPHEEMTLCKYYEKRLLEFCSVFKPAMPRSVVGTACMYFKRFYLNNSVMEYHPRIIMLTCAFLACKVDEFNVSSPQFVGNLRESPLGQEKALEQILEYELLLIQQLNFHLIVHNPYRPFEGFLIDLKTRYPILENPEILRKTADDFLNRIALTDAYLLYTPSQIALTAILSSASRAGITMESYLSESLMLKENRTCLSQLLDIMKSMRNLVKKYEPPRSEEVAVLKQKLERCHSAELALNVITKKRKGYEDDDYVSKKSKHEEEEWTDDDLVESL
Procedure: CTD peptide substrate (biotinyl-Ahx-(Tyr-Ser-Pro-Thr-Ser-Pro-Ser)4-NH2; 1-2 mg/mL) and recombinant human CDK7/cyclin H, CDK9/cyclin TI, or CDK9/cyclin K (0.5-2 μg) were incubated for 45 min at 30° C. in the presence of varying amounts of test compound in 20 mM MOPS pH 7.2, 25 mM β-glycerophosphate, 5 mM EGTA, 1 mM DTT, 1 mM sodium vanadate, 15 mM MgCl2, and 100 μM ATP (containing a trace amount of ^32PγATP) in a total volume of 25 μL in a 96-well microtiter plate. The reaction was stopped by placing the plate on ice for 2 min. Avidin (50 μg) was added to each well, and the plate was incubated at room temp for 30 min. The samples were transferred to a 96-well P81 filter plate, and washed (4×200 μL per well) with 75 mM phosphoric acid. Microscint 40 scintillation liquid (50 μL) was added to each well, and the amount of ^32P incorporation for each sample was measured using a Packard Topcount microplate scintillation counter.

[6] = target: T1, aurora-B (Homo sapiens, UniProt Q96GD4); assay: Aurora-B (human) kinase assay; assay type: biochemical; conditions: Table 3; read-out: Kinase inhibition Aurora B
T1 construct: purchased Upstate, Dundee, UK
T1 sequence (Q96GD4 whole entry): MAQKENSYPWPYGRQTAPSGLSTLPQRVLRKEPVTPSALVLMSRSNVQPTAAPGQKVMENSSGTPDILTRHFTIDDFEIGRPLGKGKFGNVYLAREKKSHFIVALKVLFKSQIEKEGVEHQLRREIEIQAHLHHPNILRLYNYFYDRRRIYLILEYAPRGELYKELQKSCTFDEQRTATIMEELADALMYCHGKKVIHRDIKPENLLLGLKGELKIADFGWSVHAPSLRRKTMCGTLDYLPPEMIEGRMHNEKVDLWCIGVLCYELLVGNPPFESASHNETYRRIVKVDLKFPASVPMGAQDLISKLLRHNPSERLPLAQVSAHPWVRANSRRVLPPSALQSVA
Procedure: This was achieved by measurement of incorporation of radioactive phosphate from ATP into Kemptide substrate (LRRASLG), upon phosphorylation by commercially obtained aurora-B (human, Upstate, Dundee, UK). Assays were performed using 96-well plates and appropriate assay buffers (20 mM Tris, 25 mM β-glycerophosphate, 5 mM EGTA, 1 mM DTT, 1 mM sodium vanadate, pH 7.5), into which were added 75 ng of pre-activated enzyme with 500 μM substrate (Kemptide). The reactions were initiated by addition of MgATP mix (15 mM MgCl2+100 μM ATP with 15-25 kBq per well of [γ-^32P]-ATP) and mixtures incubated for 60 min at 30° C. Reactions were stopped by addition of an equal volume of 75 mM aq orthophosphoric acid, followed by filtration through p81 filterplates (Whatman Polyfiltronics, Kent, UK). After washing 4 times with 75 mM aq orthophosphoric acid, plates were dried, scintillant added and incorporated radioactivity measured in a scintillation counter (TopCount, Packard Instruments, Pangbourne, Berks, UK). Compounds for kinase assay were made up as 10 mM stocks in DMSO and diluted into 10% DMSO in assay buffer. Data was analysed using curve-fitting software (XLfit version 4.0.2, IDBS, Guildford, Surrey, UK) to determine IC50 values (concentration of test compound which inhibits kinase activity by 50%).
Aurora-B (human, Upstate, Dundee, UK) was pre-activated immediately prior to kinase assay in appropriate buffers (20 mM Tris, 25 mM β-glycerophosphate, 5 mM EGTA, 1 mM DTT, 1 mM sodium vanadate, pH 7.5) by incubating 15 μg of enzyme with 4 μg INCENP (Upstate, Dundee, UK) in the presence of MgATP mix (15 mM MgCl2+100 μM ATP) for 15 min at 30° C.

[7] = tested on: Mia-PaCa-2; assay: MTT cytotoxicity assay, Mia-PaCa-2; assay type: cell-based; conditions: Homo sapiens, after incubation
Procedure: (§2) The compounds of the invention were subjected to a standard cellular proliferation assay using human tumour cell lines obtained from the ATCC (American Type Culture Collection, 10801 University Boulevard, Manessas, Va. 20110-2209, USA). […] C.; Thomas, D. G.; Darling, J. L. Anti Cancer Drugs 1996, 7, 331-8; Loveland, B. E.; Johns, T. G.; Mackay, 1. R.; Vaillant, F.; Wang, Z. X.; Hertzog, P. J. Biochemistry International 1992, 27, 501-10). In short: cells were seeded into 96-well plates according to doubling time and incubated overnight at 37° C. […] MTT was made up as a stock of 5 mg/mL in cell media and filter-sterilised. Media was removed from cells followed by a wash with 200 μL PBS. MTT solution was then added at 20 μL per well and incubated in the dark at 37° C. for 4 h MTT solution was removed and cells again washed with 200 μL PBS. MTT dye was solubilised with 200 μL per well of DMSO with agitation. Absorbance was read at 540 nm and data analysed using curve-fitting software (GraphPad Prism version 3.00 for Windows, GrapbPad Software, San Diego Calif. USA) to determine IC50 values (concentration of test compound which inhibits cell growth by 50%).

[8] = tested on: A2780; assay: MTT cytotoxicity assay, A2780; assay type: cell-based; conditions: Homo sapiens, after incubation
Procedure: as §2

[9] = Table 2, read-out: Kinase inhibition IC50 CDK2E
[10] = Table 3, read-out: Kinase inhibition CDK2E
[11] = Table 2, read-out: Kinase inhibition IC50 CDK4D1
[12] = Table 2, read-out: Kinase inhibition IC50 CDK7H
[13] = Table 3, read-out: Kinase inhibition CDK4D1
[14] = Table 3, read-out: Kinase inhibition CDK7H

Row | IC50 [1] [nM] | IC50 [2] [nM] | IC50 [3, 9] [nM] | IC50 [3, 10] [nM] | IC50 [4, 11] [nM] | IC50 [5, 12] [nM] | IC50 [4, 13] [nM] | IC50 [5, 14] [nM] | IC50 [6] [nM] | Structure (SMILES) | IC50 [7] [nM] | IC50 [8] [nM]
1 | 274 | > 100000 | 2900 | 2950 | > 100000 | > 100000 |  |  |  | O=[N+]([O-])c1cccc(Nc2nccc(-c3c[nH]c4ccccc34)n2)c1 [Compound 2, [4-(1H-Indol-3-yl)-pyrimidin-2-yl]-(3-nitro-phenyl)-amine] |  | 
2 | 1050 | > 100000 | 1200 | 1170 | > 100000 | > 100000 |  |  |  | Fc1ccc(Nc2nccc(-c3c[nH]c4ccccc34)n2)cc1 [Compound 3, (4-Fluoro-phenyl)-[4-(1H-indol-3-yl)-pyrimidin-2-yl]-amine] |  | 
3 | 243 | 2600 | 1300 | 1250 | 1000 | 5400 | 1000 | 5440 |  | COc1ccc(Nc2nccc(-c3c[nH]c4ccccc34)n2)cn1 [Compound 4, [4-(1H-Indol-3-yl)-pyrimidin-2-yl]-(6-methoxy-pyridin-3-yl)-amine] |  | 
4 |  |  | > 10000 |  |  | > 10000 |  |  | 260 | c1ccc2c(-c3ccnc(Nc4ccc(N5CCOCC5)cc4)n3)c[nH]c2c1 [Compound 5, [4-(1H-Indol-3-yl)-pyrimidin-2-yl]-(4-morpholin-4-yl-phenyl)-amine] | 2400 | 1030
5 |  |  |  | 4500 |  |  | 4390 |  | 125 | CC(=O)N1CCN(c2ccc(Nc3nccc(-c4c[nH]c5ccccc45)n3)cc2)CC1 [Compound 6, 4-(1H-indol-3-yl)-N-(4-acetylpiperazin-1-ylphenyl)pyrimidin-2-amine] | 785 | 789
6 |  |  |  | 1930 |  |  | 426 | 2530 | 170 | c1ccc2c(-c3ccnc(Nc4ccc(N5CCNCC5)cc4)n3)c[nH]c2c1 [Compound 7, 4-(1H-indol-3-yl)-N-(4-piperazin-1-ylphenyl)pyrimidin-2-amine] | 166 | 86
7 |  |  |  | 4910 |  |  | 5460 | 6670 | 158 | CC1CN(c2ccc(Nc3nccc(-c4c[nH]c5ccccc45)n3)cc2)CC(C)O1 (stereo not drawn) [Compound 9] | 6230 | 5450
8 |  |  |  | 2350 |  |  | 5780 | 5230 | 729 | CN(C)c1ccc(Nc2nccc(-c3c[nH]c4ccccc34)n2)cc1 [Compound 10, N′-[4-(1H-indol-3-yl)pyrimidin-2-yl]-N,N-dimethylbenzene-1,4-diamine] | 5480 | 485
9 |  |  |  | 1820 |  |  |  |  | 66.4 | COc1cc(Nc2nccc(-c3c[nH]c4ccccc34)n2)cc(OC)c1OC [Compound 12, 4-(1H-indol-3-yl)-N-(3,4,5-trimethoxyphenyl)pyrimidin-2-amine] | 77 | 43
10 |  |  |  | 7600 |  |  |  |  | 228 | COc1cc(Nc2nccc(-c3c[nH]c4ccccc34)n2)ccc1N1CCOCC1 [Compound 13, 4-(1H-indol-3-yl)-N-(3-methoxyl-4-morpholin-4-ylphenyl)pyrimidin-2-amine] | 6730 | 2480
11 |  |  |  | 5150 |  |  |  | 6660 | 24.6 | CC(=O)N1CCN(c2ccc(Nc3nccc(-c4c(C)[nH]c5ccccc45)n3)cc2)CC1 [Compound 22] | 778 | 299
12 |  |  |  | 2430 |  |  |  | 3470 | 76.1 | CC(=O)N1CCN(c2ccc(Nc3nccc(-c4c[nH]c5c(C)cccc45)n3)cc2)CC1 [Compound 23] | 789 | 448
